The test has as its target Non-receptor tyrosine-protein kinase TYK2 (Homo sapiens, UniProt P29597).

The term pIC50 denotes the negative decadic logarithm of the IC50, by convention in mol/L.

pIC50: −log10 of the molar value.

Sequence of Non-receptor tyrosine-protein kinase TYK2 (P29597 whole entry): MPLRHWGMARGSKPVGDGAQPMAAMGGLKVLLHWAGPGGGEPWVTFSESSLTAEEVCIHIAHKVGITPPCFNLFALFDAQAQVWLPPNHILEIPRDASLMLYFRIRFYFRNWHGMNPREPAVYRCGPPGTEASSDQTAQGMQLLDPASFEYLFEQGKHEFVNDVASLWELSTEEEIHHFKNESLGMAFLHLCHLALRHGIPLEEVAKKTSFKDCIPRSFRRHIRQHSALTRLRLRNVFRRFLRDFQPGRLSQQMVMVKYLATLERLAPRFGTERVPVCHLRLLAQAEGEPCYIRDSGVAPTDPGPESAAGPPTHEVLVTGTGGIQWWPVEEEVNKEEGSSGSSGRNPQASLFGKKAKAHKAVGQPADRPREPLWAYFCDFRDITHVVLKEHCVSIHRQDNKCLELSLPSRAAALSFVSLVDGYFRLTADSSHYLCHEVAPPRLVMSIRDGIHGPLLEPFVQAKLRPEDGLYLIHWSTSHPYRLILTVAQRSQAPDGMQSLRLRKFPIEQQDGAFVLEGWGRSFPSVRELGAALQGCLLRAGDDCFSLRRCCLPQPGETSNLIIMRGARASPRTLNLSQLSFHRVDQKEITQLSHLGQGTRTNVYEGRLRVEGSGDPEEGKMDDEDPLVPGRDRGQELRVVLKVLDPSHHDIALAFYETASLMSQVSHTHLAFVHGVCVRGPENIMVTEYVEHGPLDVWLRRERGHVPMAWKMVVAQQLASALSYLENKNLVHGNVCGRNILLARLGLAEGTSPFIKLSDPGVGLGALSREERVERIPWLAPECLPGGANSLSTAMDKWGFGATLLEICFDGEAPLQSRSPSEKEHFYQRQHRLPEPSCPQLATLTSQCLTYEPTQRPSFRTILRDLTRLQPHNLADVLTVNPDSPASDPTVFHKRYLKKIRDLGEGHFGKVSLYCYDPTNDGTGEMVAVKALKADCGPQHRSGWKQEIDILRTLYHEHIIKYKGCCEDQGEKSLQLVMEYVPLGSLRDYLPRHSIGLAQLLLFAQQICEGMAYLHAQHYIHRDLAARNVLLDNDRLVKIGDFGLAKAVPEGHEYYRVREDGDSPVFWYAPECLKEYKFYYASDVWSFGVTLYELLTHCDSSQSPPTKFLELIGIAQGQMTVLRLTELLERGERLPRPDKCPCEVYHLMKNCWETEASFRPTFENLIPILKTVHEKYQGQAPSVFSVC

For the compound `Cn1cc(-c2cc3c(N4C[C@H]5CC[C@@H](C4)N5[C@H]4C[C@@H](C#N)C4(C)C)ccnn3c2)cn1`, the pIC50 is 8.63.

For the origin of these results see ChEMBL document CHEMBL6096715, “Novel TYK2 Inhibitors for Treating Autoimmune and Inflammatory Diseases” (ACS Med Chem Lett, 2025).
